Results taken from PubChem BioAssay AID1963974 (Molecular Pharmacology Branch, DTP, NCI, 2024).
“And” between values parts separate entries of the source, which are not always exact repeats. Identical values can stand only once.

System: 648629-189-R-J1-PDC spheroids with HUVEC/MSC, viability
Experiment: Anticancer human tumor 648629-189-R-J1-PDC patient-derived bladder carcinoma cell line growth inhibition [PI3K]
Settings: for viability, T/C: stronger effect = lower value
Outline: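 Targeted small molecules plus PI3K inhibitors, half-log dose series from Cmax (default top 10 microM), were applied to heterotypic spheroids of cancer cells with HUVEC and MSCs. Viability indicated growth inhibition.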

[1] = curve of first compound, second compound 0.0316 µM
[2] = curve of first compound, second compound 0.1 µM
[3] = curve of first compound, second compound 0.316 µM
[4] = curve of first compound, second compound 1 µM
[5] = curve of first compound, second compound 3.16 µM
[6] = curve of first compound, second compound 10 µM
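Note: spheroids exposed to agents for seven days before reading.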
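Throughout, for viability, T/C: percent of vehicle control luminescence where 100% = DMSO treated spheroids.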

## Cn1cnc2c(F)c(Nc3ccc(Br)cc3Cl)c(C(=O)NOCCO)cc21 + Cc1nc(NC(=O)N2CCCC2C(N)=O)sc1-c1ccnc(C(C)(C)C(F)(F)F)c1
[1]
  IC50: > 3000 nM
[2]
  IC50: > 3000 nM
[3]
  IC50: > 3000 nM
[4]
  IC50: > 3000 nM
[5]
  IC50: > 3000 nM
[6]
  IC50: < 9.49 nM
Second compound 0.0316 µM, first compound 0.00949 µM
  viability, T/C: 94.3%
Second compound 0.0316 µM, first compound 0.03 µM
  viability, T/C: 95.2%
Second compound 0.0316 µM, first compound 0.0949 µM
  viability, T/C: 99%
Second compound 0.0316 µM, first compound 0.3 µM
  viability, T/C: 90%
Second compound 0.0316 µM, first compound 0.949 µM
  viability, T/C: 93%
Second compound 0.0316 µM, first compound 3 µM
  viability, T/C: 70.5%
Second compound 0.1 µM, first compound 0.00949 µM
  viability, T/C: 92.8%
Second compound 0.1 µM, first compound 0.03 µM
  viability, T/C: 90.7%
Second compound 0.1 µM, first compound 0.0949 µM
  viability, T/C: 98.1%
Second compound 0.1 µM, first compound 0.3 µM
  viability, T/C: 95.4%
Second compound 0.1 µM, first compound 0.949 µM
  viability, T/C: 86.2%
Second compound 0.1 µM, first compound 3 µM
  viability, T/C: 75.8%
Second compound 0.316 µM, first compound 0.00949 µM
  viability, T/C: 94.6%
Second compound 0.316 µM, first compound 0.03 µM
  viability, T/C: 93.8%
Second compound 0.316 µM, first compound 0.0949 µM
  viability, T/C: 77.2%
Second compound 0.316 µM, first compound 0.3 µM
  viability, T/C: 85.2%
Second compound 0.316 µM, first compound 0.949 µM
  viability, T/C: 81.7%
Second compound 0.316 µM, first compound 3 µM
  viability, T/C: 72.4%
Second compound 1 µM, first compound 0.00949 µM
  viability, T/C: 80.7%
Second compound 1 µM, first compound 0.03 µM
  viability, T/C: 78.2%
Second compound 1 µM, first compound 0.0949 µM
  viability, T/C: 71.3%
Second compound 1 µM, first compound 0.3 µM
  viability, T/C: 75.5%
Second compound 1 µM, first compound 0.949 µM
  viability, T/C: 72.9%
Second compound 1 µM, first compound 3 µM
  viability, T/C: 64.2%
Second compound 3.16 µM, first compound 0.00949 µM
  viability, T/C: 54.6%
Second compound 3.16 µM, first compound 0.03 µM
  viability, T/C: 60.1%
Second compound 3.16 µM, first compound 0.0949 µM
  viability, T/C: 59.2%
Second compound 3.16 µM, first compound 0.3 µM
  viability, T/C: 52.1%
Second compound 3.16 µM, first compound 0.949 µM
  viability, T/C: 57.1%
Second compound 3.16 µM, first compound 3 µM
  viability, T/C: 52.7%
Second compound 10 µM, first compound 0.00949 µM
  viability, T/C: 39.5%
Second compound 10 µM, first compound 0.03 µM
  viability, T/C: 34.4%
Second compound 10 µM, first compound 0.0949 µM
  viability, T/C: 34.7%
Second compound 10 µM, first compound 0.3 µM
  viability, T/C: 40.2%
Second compound 10 µM, first compound 0.949 µM
  viability, T/C: 44.8%
Second compound 10 µM, first compound 3 µM
  viability, T/C: 38.1%

## CC(C)NCC(C(=O)N1CCN(c2ncnc3c2C(C)CC3O)CC1)c1ccc(Cl)cc1 (stereo not given) + Cc1nc(NC(=O)N2CCCC2C(N)=O)sc1-c1ccnc(C(C)(C)C(F)(F)F)c1
[1]
  IC50: 719 nM
[2]
  IC50: 784 nM
[3]
  IC50: 648 nM
[4]
  IC50: 506 nM
[5]
  IC50: 154 nM
[6]
  IC50: < 31.6 nM
Second compound 0.0316 µM, first compound 0.0316 µM
  viability, T/C: 105%
Second compound 0.0316 µM, first compound 0.1 µM
  viability, T/C: 82.2%
Second compound 0.0316 µM, first compound 0.316 µM
  viability, T/C: 73.8%
Second compound 0.0316 µM, first compound 1 µM
  viability, T/C: 40.5%
Second compound 0.0316 µM, first compound 3.16 µM
  viability, T/C: 23.2%
Second compound 0.0316 µM, first compound 10 µM
  viability, T/C: 15.7%
Second compound 0.1 µM, first compound 0.0316 µM
  viability, T/C: 102%
Second compound 0.1 µM, first compound 0.1 µM
  viability, T/C: 91%
Second compound 0.1 µM, first compound 0.316 µM
  viability, T/C: 75.2%
Second compound 0.1 µM, first compound 1 µM
  viability, T/C: 42.2%
Second compound 0.1 µM, first compound 3.16 µM
  viability, T/C: 23.1%
Second compound 0.1 µM, first compound 10 µM
  viability, T/C: 12.8%
Second compound 0.316 µM, first compound 0.0316 µM
  viability, T/C: 84.1%
Second compound 0.316 µM, first compound 0.1 µM
  viability, T/C: 80.6%
Second compound 0.316 µM, first compound 0.316 µM
  viability, T/C: 70.6%
Second compound 0.316 µM, first compound 1 µM
  viability, T/C: 36.7%
Second compound 0.316 µM, first compound 3.16 µM
  viability, T/C: 22%
Second compound 0.316 µM, first compound 10 µM
  viability, T/C: 12.5%
Second compound 1 µM, first compound 0.0316 µM
  viability, T/C: 69.6%
Second compound 1 µM, first compound 0.1 µM
  viability, T/C: 88.4%
Second compound 1 µM, first compound 0.316 µM
  viability, T/C: 57.1%
Second compound 1 µM, first compound 1 µM
  viability, T/C: 34.2%
Second compound 1 µM, first compound 3.16 µM
  viability, T/C: 21.5%
Second compound 1 µM, first compound 10 µM
  viability, T/C: 12.4%
Second compound 3.16 µM, first compound 0.0316 µM
  viability, T/C: 61.1%
Second compound 3.16 µM, first compound 0.1 µM
  viability, T/C: 53.6%
Second compound 3.16 µM, first compound 0.316 µM
  viability, T/C: 43.8%
Second compound 3.16 µM, first compound 1 µM
  viability, T/C: 32.8%
Second compound 3.16 µM, first compound 3.16 µM
  viability, T/C: 20.8%
Second compound 3.16 µM, first compound 10 µM
  viability, T/C: 10.1%
Second compound 10 µM, first compound 0.0316 µM
  viability, T/C: 38%
Second compound 10 µM, first compound 0.1 µM
  viability, T/C: 34.6%
Second compound 10 µM, first compound 0.316 µM
  viability, T/C: 28.7%
Second compound 10 µM, first compound 1 µM
  viability, T/C: 20.1%
Second compound 10 µM, first compound 3.16 µM
  viability, T/C: 13.2%
Second compound 10 µM, first compound 10 µM
  viability, T/C: 5.54%

## CC1(C)CCC(CN2CCN(c3ccc(C(=O)NS(=O)(=O)c4ccc(NCC5CCOCC5)c([N+](=O)[O-])c4)c(Oc4cnc5[nH]ccc5c4)c3)CC2)=C(c2ccc(Cl)cc2)C1
Compound 0.0316 µM
  viability, T/C: 102% (2×) and 94.5% and 111%
Compound 0.1 µM
  viability, T/C: 101% (2×) and 96.3% and 98.1%
Compound 0.316 µM
  viability, T/C: 110% [middle of 4 runs]
Compound 1 µM
  viability, T/C: 98.5% [middle of 4 runs]
Compound 3.16 µM
  viability, T/C: 89% [middle of 4 runs]
Curve of compound
  IC50: > 10000 nM and 4880 nM and 5190 nM
